# Measurements published in article PMC10821532, “Sex and Cross-Sex Testosterone Treatment Alters Gamma-Hydroxybutyrate Acid Toxicokinetics and Toxicodynamics in Rats” (Pharmaceutics, 2024).
# Like-named read-outs stand apart in the source and are kept apart here.
# Experiment: GHB toxicokinetic study, i.v. bolus, plasma and urine up to 8 h, noncompartmental analysis
# Type: in vivo, Sprague Dawley rats
# Conditions: rat, iv
# Method: Male and female Sprague Dawley (SD) rats, ovariectomized (OVX) females, and castrated (CST) males were obtained from Charles River (Wilmington, MA, USA) at 8 weeks of age. The animals were housed under controlled temperature and humidity with an artificial 12 h light/dark cycle, and food and water were available ad libitum. The animals were acclimatized for at least one week before experiments. Hormone treatment was conducted by implanting OVX female and CST male rats subcutaneously with 60-day release pellets containing 7.5 mg testosterone or corresponding placebo pellets (Innovative Research of America) at 10 weeks of age. After 21 days of hormone exposure, rats were utilized in toxicokinetic studies. Age-matched male and female rats were used as control groups. Female rats in the estrus stage were selected for the study. Estrus cycle stages of female rats were monitored daily by vaginal lavage smear, as described in previously published literature. The Institutional Animal Care and Use Committee (IACUC) at the University of the Pacific approved all experiments.
# Jugular vein cannulas were surgically implanted under anesthesia with ketamine/xylazine. Cannulas were flushed daily with heparinized saline to maintain patency. Rats were allowed a minimum of 72 h for recovery from surgery before the experiments were conducted. GHB was administered intravenously as a 1000 mg/kg i.v. bolus or 1500 mg/kg iv bolus with or without AR-C155858 (1 mg/kg i.v. bolus) via a jugular vein cannula to the animals at 13 weeks of age (N = 5–7 per group). Rats were dosed in metabolic cages with ad libitum access to water to allow for the concurrent collection of blood and urine samples for up to 8 h. GHB was administered as a 300 mg/mL solution in sterile water, and the time of administration was considered as time 0. AR-C155858 was administered as a 1 mg/mL solution in 10% cyclodextrin in normal saline 5 min after GHB administration. Blood samples (200 μL) were taken from the jugular vein cannula at different time points: 5, 10, 20, 30, 60, 90, 120, 180, 240, 270, 300, and 330 min for 1000 mg/kg and 10, 30, 60, 90, 120, 180, 240, 270, 300, 330, 360, and 390/480 min for 1500 mg/kg bolus with or without AR-C155858. Plasma samples were separated by centrifugation and stored at −20 °C. Urine samples were collected at 120, 240, and 360 min for 1000 mg/kg and 120, 240, and 390/480 min for 1500 mg/kg bolus with or without AR-C155858 post-dose; the total urine volume was determined, and the samples were stored at −20 °C.
# GHB in plasma and urine were quantified using a validated liquid chromatography/tandem mass spectrometry (LC/MS/MS) assay that was described previously. Briefly, for the preparation of plasma standards and quality controls (QCs), 5 μL of GHB-d6 and 5 μL of standard stock solution or QC stock solution were added to 45 μL of blank plasma. For each unknown plasma sample, 5 μL of GHB-d6 was added to 50 μL of plasma. Protein precipitation was then performed by the addition of 800 μL of acetonitrile with 0.1% formic acid, followed by centrifugation at 10,000 rpm for 20 min. 750 μL of the supernatant was transferred to a clean disposable glass tube and evaporated using a MultiVap Nitrogen Evaporator (Organomation, Berlin, MA, USA) under a nitrogen stream. Dried samples were reconstituted in 250 μL of 95:5 double-distilled water—acetonitrile with 0.1% acetic acid. For urine standards and QCs, 25 μL of blank urine, 5 μL of standard or QC stock solution, 5 μL of GHB-d6, and 465 μL of double-distilled water were mixed. For unknown urine samples, 25 μL of the sample was added to 5 μL of GHB-d6 and 470 μL of double-distilled water. The same LC/MS/MS method was used for GHB plasma and urine analyses. LC/MS/MS equipment consisted of an Agilent 1200 series UPLC consisting of an online degasser, binary pump, and autosampler (Agilent Technologies, Santa Clara, CA, USA) connected to a Agilent 6460 Triple Quad Mass Spectrometer. […]
smiles,measurement,setting,value
"O=C(O)CCCO [GHB, Γ-hydroxybutyric acid]",clearance,"female, Sprague Dawley, plasma and urine, 1000 mg/kg, 1000 mg/kg GHB iv, intact female (estrus) rats, read-out: CLm – Metabolic clearance",0.246 ± 0.036 L/h/kg
same,CL renal,"female, Sprague Dawley, plasma and urine, 1500 mg/kg, 1500 mg/kg GHB iv, OVX testosterone placebo rats, read-out: CLR (renal clearance)",0.21 ± 0.03 L/h/kg
same,CL renal,"female, Sprague Dawley, plasma and urine, 1500 mg/kg, 1500 mg/kg GHB iv, OVX testosterone rats, read-out: CLR (renal clearance)",0.162 ± 0.09 L/h/kg
same,CL renal,"female, Sprague Dawley, plasma and urine, 1500 mg/kg, 1500 mg/kg GHB iv, intact female (estrus) rats, read-out: CLR (renal clearance)",0.222 ± 0.066 L/h/kg
same,clearance,"female, Sprague Dawley, plasma, 1000 mg/kg, 1000 mg/kg GHB iv, OVX testosterone placebo rats, read-out: CL - Total clearance",0.33 ± 0.018 L/h/kg
same,clearance,"female, Sprague Dawley, plasma, 1000 mg/kg, 1000 mg/kg GHB iv, intact female (estrus) rats, read-out: CL - Total clearance",0.408 ± 0.042 L/h/kg
same,clearance,"female, Sprague Dawley, plasma, 1500 mg/kg, 1500 mg/kg GHB iv, intact female (estrus) rats, read-out: CL (total clearance)",0.282 ± 0.066 L/h/kg
same,CL renal,"female, Sprague-Dawley, plasma and urine, 1500 mg/kg, 1500 mg/kg GHB + 1mg/kg AR-C 155858 iv, OVX testosterone placebo rats, read-out: CLR (renal clearance)",0.42 ± 0.084 L/h/kg
same,clearance,"female, Sprague-Dawley, plasma and urine, 1500 mg/kg, 1500 mg/kg GHB + 1mg/kg AR-C 155858 iv, OVX testosterone placebo rats, read-out: CLm (metabolic clearance)",0.162 ± 0.054 L/h/kg
same,CL renal,"female, Sprague-Dawley, plasma and urine, 1500 mg/kg, 1500 mg/kg GHB + 1mg/kg AR-C 155858 iv, OVX testosterone rats, read-out: CLR (renal clearance)",0.42 ± 0.054 L/h/kg
same,clearance,"female, Sprague-Dawley, plasma and urine, 1500 mg/kg, 1500 mg/kg GHB + 1mg/kg AR-C 155858 iv, OVX testosterone rats, read-out: CLm (metabolic clearance)",0.144 ± 0.078 L/h/kg
same,CL renal,"female, Sprague-Dawley, plasma and urine, 1500 mg/kg, 1500 mg/kg GHB + 1mg/kg AR-C 155858 iv, intact female (estrus) rats, read-out: CLR (renal clearance)",0.378 ± 0.108 L/h/kg
same,clearance,"female, Sprague-Dawley, plasma and urine, 1500 mg/kg, 1500 mg/kg GHB + 1mg/kg AR-C 155858 iv, intact female (estrus) rats, read-out: CLm (metabolic clearance)",0.132 ± 0.024 L/h/kg
same,clearance,"female, Sprague-Dawley, plasma, 1500 mg/kg, 1500 mg/kg GHB + 1mg/kg AR-C 155858 iv, OVX testosterone placebo rats, read-out: CL (total clearance)",0.582 ± 0.126 L/h/kg
same,clearance,"female, Sprague-Dawley, plasma, 1500 mg/kg, 1500 mg/kg GHB + 1mg/kg AR-C 155858 iv, OVX testosterone rats, read-out: CL (total clearance)",0.564 ± 0.084 L/h/kg
same,clearance,"female, Sprague-Dawley, plasma, 1500 mg/kg, 1500 mg/kg GHB + 1mg/kg AR-C 155858 iv, intact female (estrus) rats, read-out: CL (total clearance)",0.51 ± 0.114 L/h/kg
same,clearance,"female, Sprague-Dawley, plasma, 1500 mg/kg, 1500 mg/kg GHB iv, OVX testosterone placebo rats, read-out: CL (total clearance)",0.342 ± 0.054 L/h/kg
same,CL renal,"male, Sprague Dawley, plasma and urine, 1000 mg/kg, 1000 mg/kg GHB iv, CST testosterone placebo rats, read-out: CLR - Renal clearance",0.18 ± 0.042 L/h/kg
same,clearance,"male, Sprague Dawley, plasma and urine, 1000 mg/kg, 1000 mg/kg GHB iv, CST testosterone placebo rats, read-out: CLm – Metabolic clearance",0.096 ± 0.03 L/h/kg
same,clearance,"male, Sprague Dawley, plasma and urine, 1000 mg/kg, 1000 mg/kg GHB iv, CST testosterone rats, read-out: CLm – Metabolic clearance",0.126 ± 0.024 L/h/kg
same,CL renal,"male, Sprague Dawley, plasma and urine, 1000 mg/kg, 1000 mg/kg GHB iv, intact male rats, read-out: CLR - Renal clearance",0.132 ± 0.024 L/h/kg
same,clearance,"male, Sprague Dawley, plasma and urine, 1000 mg/kg, 1000 mg/kg GHB iv, intact male rats, read-out: CLm – Metabolic clearance",0.144 ± 0.03 L/h/kg
same,CL renal,"male, Sprague Dawley, plasma and urine, 1500 mg/kg, 1500 mg/kg GHB iv, CST testosterone placebo rats, read-out: CLR (renal clearance)",0.174 ± 0.024 L/h/kg
same,CL renal,"male, Sprague Dawley, plasma and urine, 1500 mg/kg, 1500 mg/kg GHB iv, intact male rats, read-out: CLR (renal clearance)",0.252 ± 0.078 L/h/kg
same,clearance,"male, Sprague Dawley, plasma, 1000 mg/kg, 1000 mg/kg GHB iv, CST testosterone placebo rats, read-out: CL - Total clearance",0.276 ± 0.048 L/h/kg
same,clearance,"male, Sprague Dawley, plasma, 1000 mg/kg, 1000 mg/kg GHB iv, CST testosterone rats, read-out: CL - Total clearance",0.318 ± 0.06 L/h/kg
same,clearance,"male, Sprague Dawley, plasma, 1000 mg/kg, 1000 mg/kg GHB iv, intact male rats, read-out: CL - Total clearance",0.276 ± 0.048 L/h/kg
same,clearance,"male, Sprague Dawley, plasma, 1500 mg/kg, 1500 mg/kg GHB iv, intact male rats, read-out: CL (total clearance)",0.288 ± 0.084 L/h/kg
same,CL renal,"male, Sprague-Dawley, plasma and urine, 1000 mg/kg, 1000 mg/kg GHB iv, CST testosterone rats, read-out: CLR - Renal clearance",0.192 ± 0.054 L/h/kg
same,CL renal,"male, Sprague-Dawley, plasma and urine, 1500 mg/kg, 1500 mg/kg GHB + 1mg/kg AR-C 155858 iv, CST testosterone placebo rats, read-out: CLR (renal clearance)",0.324 ± 0.066 L/h/kg
same,clearance,"male, Sprague-Dawley, plasma and urine, 1500 mg/kg, 1500 mg/kg GHB + 1mg/kg AR-C 155858 iv, CST testosterone placebo rats, read-out: CLm (metabolic clearance)",0.15 ± 0.078 L/h/kg
same,CL renal,"male, Sprague-Dawley, plasma and urine, 1500 mg/kg, 1500 mg/kg GHB + 1mg/kg AR-C 155858 iv, CST testosterone rats, read-out: CLR (renal clearance)",0.336 ± 0.072 L/h/kg
same,clearance,"male, Sprague-Dawley, plasma and urine, 1500 mg/kg, 1500 mg/kg GHB + 1mg/kg AR-C 155858 iv, CST testosterone rats, read-out: CLm (metabolic clearance)",0.114 ± 0.006 L/h/kg
same,CL renal,"male, Sprague-Dawley, plasma and urine, 1500 mg/kg, 1500 mg/kg GHB + 1mg/kg AR-C 155858 iv, intact male rats, read-out: CLR (renal clearance)",0.366 ± 0.03 L/h/kg
same,clearance,"male, Sprague-Dawley, plasma and urine, 1500 mg/kg, 1500 mg/kg GHB + 1mg/kg AR-C 155858 iv, intact male rats, read-out: CLm (metabolic clearance)",0.126 ± 0.018 L/h/kg
same,CL renal,"male, Sprague-Dawley, plasma and urine, 1500 mg/kg, 1500 mg/kg GHB iv, CST testosterone rats, read-out: CLR (renal clearance)",0.084 ± 0.036 L/h/kg
same,clearance,"male, Sprague-Dawley, plasma, 1500 mg/kg, 1500 mg/kg GHB + 1mg/kg AR-C 155858 iv, CST testosterone placebo rats, read-out: CL (total clearance)",0.474 ± 0.072 L/h/kg
same,clearance,"male, Sprague-Dawley, plasma, 1500 mg/kg, 1500 mg/kg GHB + 1mg/kg AR-C 155858 iv, CST testosterone rats, read-out: CL (total clearance)",0.45 ± 0.084 L/h/kg
same,clearance,"male, Sprague-Dawley, plasma, 1500 mg/kg, 1500 mg/kg GHB + 1mg/kg AR-C 155858 iv, intact male rats, read-out: CL (total clearance)",0.492 ± 0.036 L/h/kg
same,clearance,"male, Sprague-Dawley, plasma, 1500 mg/kg, 1500 mg/kg GHB iv, CST testosterone placebo rats, read-out: CL (total clearance)",0.294 ± 0.024 L/h/kg
same,clearance,"male, Sprague-Dawley, plasma, 1500 mg/kg, 1500 mg/kg GHB iv, CST testosterone rats, read-out: CL (total clearance)",0.192 ± 0.042 L/h/kg
